Active and inactive are the calls of the source. The rule behind the calls is not given here.
Key:
[1] = target: Histone deacetylase (Homo sapiens) (UniProt Q13547+O15379+Q9UBN7+Q92769+Q9UQL6+Q8WUI4+Q9BY41+Q96DB2+P56524+Q9UKV0+Q969S8); test: Inhibition of HDAC in human HaCaT cells at 10 uM using acetylated lysine side chain as substrate incubated for 1 hr by colorimetric detection based assay relative to control; type: cell-based
[2] = target: T1, Histone deacetylase 2 (Homo sapiens, UniProt Q92769); test: Induction of HDAC2 S-nitrosylation in human HaCaT cells after 1 hr by immunoprecipitation and Western blot analysis; type: cell-based
[3] = (§1) Activation of soluble guanylyl cyclase in Wistar rat aortic strips assessed as dilation of L-phenylephrine-induced contraction administered 5 mins before contraction by isometric transducer analysis
[4] = system: Rattus norvegicus; test: as §1
[5] = Activation of soluble guanylyl cyclase in Wistar rat aortic strips assessed as dilation of L-phenylephrine-induced contraction administered 5 mins before contraction in presence of ODQ by isometric transducer analysis
[6] = Drug metabolism in human HaCaT cells assessed as induction of NO release at 10 uM after 1 hr by DAF-2D-based FACS analysis; type: ADME, cell-based
[7] = Drug metabolism in human HaCaT cells assessed as induction of NO release at 50 to 100 uM after 1 hr by DAF-2D-based FACS analysis; type: ADME, cell-based
[8] = system: HaCaT; test: Cytotoxicity against human HaCaT cells assessed as increase in dead cells 0.1 to 100 uM after 72 hrs by Trypan Blue-based assay; type: cell-based
[9] = system: C2C12; test: Cytotoxicity against mouse C2C12 cells assessed as increase in dead cells 0.5 to 10 uM after 72 hrs by Trypan Blue-based assay; type: cell-based; conditions: c2c12, 72 h
[10] = target: Histone deacetylase 1 (Homo sapiens, UniProt Q13547); test: Inhibition of human FLAG-tagged HDAC1 expressed in HEK293T cells using acetylated lysine side chain as substrate after 1 hr by colorimetric detection based assay
[11] = target: T1, Histone deacetylase 2; test: Inhibition of FLAG-tagged HDAC2 (unknown origin) expressed in HEK293T cells using acetylated lysine side chain as substrate after 1 hr by colorimetric detection based assay; type: cell-based
[12] = target: Histone deacetylase 3 (Homo sapiens, UniProt O15379); test: Inhibition of human FLAG-tagged HDAC3 expressed in HEK293T cells using acetylated lysine side chain as substrate after 1 hr by colorimetric detection based assay; type: cell-based
[13] = target: Histone deacetylase 4 (Homo sapiens) (UniProt P56524); test: Induction of HDAC4 nuclear translocation in human HaCaT cells at 10 uM after 1 hr by immunofluorescence analysis; type: cell-based
[14] = target: Histone deacetylase 5 (Homo sapiens) (UniProt Q9UQL6); test: Induction of HDAC5 nuclear translocation in human HaCaT cells at 10 uM after 1 hr by immunofluorescence analysis; type: cell-based
[15] = system: C2C12; test: Induction of skeletal muscle differentiation in mouse C2C12 cells assessed as myotube formation by measuring MHC expression at 0.5 uM after 5 days by DAPI-staining based microscopy; type: functional, cell-based
[16] = system: C2C12; test: Induction of skeletal muscle differentiation in mouse C2C12 cells assessed as induction of multinucleated fibers at 0.5 uM after 5 days by DAPI-staining based microscopy; type: functional, cell-based
[17] = system: C2C12; test: Induction of skeletal muscle differentiation in mouse C2C12 cells assessed as increase in myoblast fusion by measuring MyoM expression at 0.5 uM after 5 days by qRT-PCR analysis; type: functional, cell-based
[18] = Drug metabolism in human HaCaT cells assessed as induction of NO release at 10 uM by DAF-2D-based FACS analysis; type: ADME, cell-based; conditions: TDE = time-dependent effect

T1 sequence (Q92769 whole entry): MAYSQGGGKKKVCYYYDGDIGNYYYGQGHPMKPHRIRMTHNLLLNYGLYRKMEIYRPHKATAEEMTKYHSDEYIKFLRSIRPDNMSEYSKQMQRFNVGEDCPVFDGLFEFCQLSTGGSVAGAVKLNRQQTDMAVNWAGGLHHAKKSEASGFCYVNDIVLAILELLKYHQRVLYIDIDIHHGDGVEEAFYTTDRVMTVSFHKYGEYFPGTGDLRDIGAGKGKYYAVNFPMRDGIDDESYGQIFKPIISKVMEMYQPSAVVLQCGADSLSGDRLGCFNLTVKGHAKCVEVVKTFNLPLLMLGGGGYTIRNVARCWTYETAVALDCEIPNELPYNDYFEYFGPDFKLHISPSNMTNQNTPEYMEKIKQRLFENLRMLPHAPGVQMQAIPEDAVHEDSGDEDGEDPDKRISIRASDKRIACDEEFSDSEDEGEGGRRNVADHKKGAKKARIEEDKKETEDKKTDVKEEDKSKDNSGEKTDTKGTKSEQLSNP
Histone deacetylase 4 (Homo sapiens), sequence (P56524 whole entry): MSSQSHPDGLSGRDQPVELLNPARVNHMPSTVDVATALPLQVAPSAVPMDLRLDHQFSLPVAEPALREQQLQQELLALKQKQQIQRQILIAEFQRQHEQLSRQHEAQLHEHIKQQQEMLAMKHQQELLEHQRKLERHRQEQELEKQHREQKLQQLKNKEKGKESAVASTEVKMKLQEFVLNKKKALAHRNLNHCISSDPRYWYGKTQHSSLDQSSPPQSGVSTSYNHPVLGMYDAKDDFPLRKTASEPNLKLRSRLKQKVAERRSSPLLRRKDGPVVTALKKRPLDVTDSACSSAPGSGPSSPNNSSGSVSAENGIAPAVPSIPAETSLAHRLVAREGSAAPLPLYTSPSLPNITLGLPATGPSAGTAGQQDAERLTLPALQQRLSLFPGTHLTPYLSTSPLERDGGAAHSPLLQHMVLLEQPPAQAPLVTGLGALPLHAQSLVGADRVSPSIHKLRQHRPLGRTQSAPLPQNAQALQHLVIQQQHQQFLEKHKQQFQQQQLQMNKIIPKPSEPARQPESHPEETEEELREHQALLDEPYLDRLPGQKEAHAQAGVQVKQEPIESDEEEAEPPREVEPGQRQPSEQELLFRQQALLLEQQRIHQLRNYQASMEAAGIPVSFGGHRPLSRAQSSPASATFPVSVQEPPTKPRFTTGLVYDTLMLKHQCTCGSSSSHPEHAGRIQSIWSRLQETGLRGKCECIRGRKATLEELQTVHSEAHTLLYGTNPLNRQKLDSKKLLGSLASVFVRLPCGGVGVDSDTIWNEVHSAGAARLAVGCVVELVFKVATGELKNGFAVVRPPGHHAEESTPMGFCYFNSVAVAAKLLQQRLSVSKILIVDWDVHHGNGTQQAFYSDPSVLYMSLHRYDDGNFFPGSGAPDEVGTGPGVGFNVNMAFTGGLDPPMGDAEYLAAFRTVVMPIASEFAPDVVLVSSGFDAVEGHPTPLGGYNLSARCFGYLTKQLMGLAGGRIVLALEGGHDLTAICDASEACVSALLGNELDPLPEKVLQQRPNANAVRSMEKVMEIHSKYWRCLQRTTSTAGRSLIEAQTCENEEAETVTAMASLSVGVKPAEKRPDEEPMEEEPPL
Histone deacetylase 1, sequence (Q13547 whole entry): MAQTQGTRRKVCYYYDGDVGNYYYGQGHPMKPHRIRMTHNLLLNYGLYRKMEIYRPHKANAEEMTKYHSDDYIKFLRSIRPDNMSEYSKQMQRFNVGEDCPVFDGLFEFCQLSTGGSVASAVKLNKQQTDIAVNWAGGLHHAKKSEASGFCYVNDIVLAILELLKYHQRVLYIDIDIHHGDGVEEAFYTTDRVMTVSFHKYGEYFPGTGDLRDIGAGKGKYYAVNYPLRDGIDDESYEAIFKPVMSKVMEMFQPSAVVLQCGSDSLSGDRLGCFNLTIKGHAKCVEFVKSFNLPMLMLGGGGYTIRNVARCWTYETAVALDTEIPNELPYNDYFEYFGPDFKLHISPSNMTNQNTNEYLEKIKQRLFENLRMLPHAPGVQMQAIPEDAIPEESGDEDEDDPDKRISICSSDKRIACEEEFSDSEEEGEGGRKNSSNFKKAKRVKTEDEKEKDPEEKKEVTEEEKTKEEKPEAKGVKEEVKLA
Histone deacetylase 3, sequence (O15379 whole entry): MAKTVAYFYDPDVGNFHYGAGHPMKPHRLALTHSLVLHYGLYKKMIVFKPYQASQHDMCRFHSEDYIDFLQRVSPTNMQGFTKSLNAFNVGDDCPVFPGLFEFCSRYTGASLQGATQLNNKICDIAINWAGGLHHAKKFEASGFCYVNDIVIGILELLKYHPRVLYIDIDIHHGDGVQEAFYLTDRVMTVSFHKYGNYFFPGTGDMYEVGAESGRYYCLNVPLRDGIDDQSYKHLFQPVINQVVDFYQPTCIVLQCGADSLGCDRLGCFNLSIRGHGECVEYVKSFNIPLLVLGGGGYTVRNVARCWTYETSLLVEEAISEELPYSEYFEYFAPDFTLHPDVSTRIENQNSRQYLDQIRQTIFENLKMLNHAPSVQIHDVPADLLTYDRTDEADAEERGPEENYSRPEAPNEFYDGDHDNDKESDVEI
Histone deacetylase 5 (Homo sapiens), sequence (Q9UQL6 whole entry): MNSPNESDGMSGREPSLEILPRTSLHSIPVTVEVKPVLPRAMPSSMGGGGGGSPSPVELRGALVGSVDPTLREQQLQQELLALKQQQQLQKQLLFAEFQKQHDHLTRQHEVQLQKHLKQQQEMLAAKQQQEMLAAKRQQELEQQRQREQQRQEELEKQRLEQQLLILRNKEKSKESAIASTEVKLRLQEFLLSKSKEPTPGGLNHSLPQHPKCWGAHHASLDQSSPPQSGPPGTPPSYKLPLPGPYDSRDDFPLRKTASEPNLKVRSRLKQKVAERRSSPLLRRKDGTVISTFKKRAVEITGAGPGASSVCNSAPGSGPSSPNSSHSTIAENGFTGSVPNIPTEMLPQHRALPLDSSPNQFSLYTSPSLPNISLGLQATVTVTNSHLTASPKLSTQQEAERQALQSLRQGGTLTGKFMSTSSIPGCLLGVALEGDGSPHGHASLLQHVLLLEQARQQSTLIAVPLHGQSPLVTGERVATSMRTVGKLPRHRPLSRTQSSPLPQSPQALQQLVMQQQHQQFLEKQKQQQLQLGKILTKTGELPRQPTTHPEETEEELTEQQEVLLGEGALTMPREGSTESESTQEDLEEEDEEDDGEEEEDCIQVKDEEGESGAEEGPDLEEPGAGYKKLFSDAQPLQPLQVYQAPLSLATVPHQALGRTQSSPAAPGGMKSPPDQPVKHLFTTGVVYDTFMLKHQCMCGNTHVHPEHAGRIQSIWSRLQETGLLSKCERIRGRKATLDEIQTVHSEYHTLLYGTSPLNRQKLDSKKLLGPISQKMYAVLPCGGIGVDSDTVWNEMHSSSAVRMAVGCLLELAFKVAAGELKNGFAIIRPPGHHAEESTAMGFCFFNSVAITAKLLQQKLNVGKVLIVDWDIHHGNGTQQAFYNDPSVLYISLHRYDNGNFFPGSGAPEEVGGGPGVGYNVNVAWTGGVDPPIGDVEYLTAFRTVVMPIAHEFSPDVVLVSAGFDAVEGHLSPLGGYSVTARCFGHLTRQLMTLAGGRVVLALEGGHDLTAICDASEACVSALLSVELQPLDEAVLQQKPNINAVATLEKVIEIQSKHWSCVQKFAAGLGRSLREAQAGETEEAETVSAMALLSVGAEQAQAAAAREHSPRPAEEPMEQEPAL

SMILES | inhibition [1] [%] | Activity [2] | EC50 [3] [µM] | Activity [4] | EC50 [5] [µM] | Drug metabolism [6] | Drug metabolism [7] | IC50 [10] [µM] | IC50 [11] [µM] | IC50 [12] [µM] | Activity [13] | Activity [14] | Drug metabolism [18] | Activity [8] | Activity [9] | Activity [15] | Activity [16] | Activity [17]
Nc1ccccc1NC(=O)c1ccc(CNC(=O)OCc2cccnc2)cc1 [ENTINOSTAT] |  |  |  |  |  |  |  |  |  |  |  |  |  | Toxic | Toxic |  |  | 
CN(CCCCC(CO[N+](=O)[O-])O[N+](=O)[O-])Cc1ccc(COC(=O)NCc2ccc(C(=O)Nc3ccccc3N)cc2)cn1.Cl.Cl.Cl (centres undefined) | 20 to 50 | Active | 0.29 | Dose-dependent effect | 11 | Metabolite_Detected |  | 1.04 | 0.39 | 1.22 | Active | Active |  | Non-Toxic | Non-Toxic | Active | Active | Active
Nc1ccccc1NC(=O)c1ccc(CNC(=O)OCc2ccc(OCCOc3no[n+]([O-])c3S(=O)(=O)c3ccccc3)nc2)cc1 | 20 to 50 | Active | 0.031 | Dose-dependent effect | 0.35 |  |  | 1.02 | 0.37 | 1.19 | Active | Active | Tde | Non-Toxic | Non-Toxic | Active |  | 
CN(C)CCCCC(CO[N+](=O)[O-])O[N+](=O)[O-] (centres undefined) |  |  | 0.8 | Dose-dependent effect | > 100 |  |  |  |  |  |  |  |  |  |  |  |  | 
COCCOc1no[n+]([O-])c1S(=O)(=O)c1ccccc1 |  |  | 0.0045 | Dose-dependent effect | 0.43 |  |  |  |  |  |  |  |  |  |  |  |  | 

Further compounds by falling EC50 [3], results first:

inhibition [1] [%] | Activity [2] | EC50 [3] [µM] | Activity [4] | EC50 [5] [µM] | Drug metabolism [6] | Drug metabolism [7] | IC50 [10] [µM] | IC50 [11] [µM] | IC50 [12] [µM] | Activity [13] | Activity [14] | Drug metabolism [18] | SMILES | Activity [8] | Activity [9] | Activity [15] | Activity [16] | Activity [17]
20 to 50 |  | 3.4 | Dose-dependent effect | 63 | Metabolite_Notdetected | Metabolite_Notdetected |  |  |  |  |  |  | CN(Cc1ccc(COC(=O)NCc2ccc(C(=O)Nc3ccccc3N)cc2)cn1)Cc1no[n+]([O-])c1C(N)=O.Cl.Cl.Cl |  |  |  |  | 
20 to 50 |  | 3.4 | Dose-dependent effect | > 100 | Metabolite_Detected |  |  |  |  |  |  |  | Nc1ccccc1NC(=O)c1ccc(CNC(=O)OCc2ccc(OCCOc3no[n+]([O-])c3-c3ccccc3)nc2)cc1 |  |  |  |  | 
20 to 50 |  | 2.6 | Dose-dependent effect | 44 | Metabolite_Notdetected |  |  |  |  |  |  |  | CN(CCCO[N+](=O)[O-])Cc1ccc(COC(=O)NCc2ccc(C(=O)Nc3ccccc3N)cc2)cn1.Cl.Cl.Cl |  |  |  |  | 
20 to 50 | Active | 0.024 | Dose-dependent effect | 0.96 |  |  |  |  |  |  |  |  | CN(Cc1ccc(COC(=O)NCc2ccc(C(=O)Nc3ccccc3N)cc2)cn1)Cc1no[n+]([O-])c1C#N |  |  |  |  | 

Source: ChEMBL document CHEMBL4251627, “Structural and biological characterization of new hybrid drugs joining an HDAC inhibitor to different NO-donors” (Eur J Med Chem, 2018)
